The target of the experiment is human A2A receptor (Homo sapiens (Human), UniProt P29274). Nature of the experiment: competition binding assay using Scintillation Proximity technology. The following applies: membranes from CHO-K1 cells expressing the human A2a receptor; 2.0 nM tritiated compound; Cheng-Prusoff. The essentials:
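Membranes (1.0 μg) from CHO-K1 cells expressing human A2A were treated with adenosine deaminase, then incubated 1 h at room temperature with compound (3000–0.15 nM) and 2.0 nM tritiated SCH-type ligand on WGA SPA beads in PBS plus 10 mM MgCl2. Nonspecific binding was defined with 1 μM CGS 15943. Ki was derived from EC50 via Cheng-Prusoff.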
On the technique in general: SPA uses beads or plates that emit light when radiolabelled molecules are held near them.

For 29 molecules, Ki results are on record in patent US11046714B2, “2,2-difluorodioxolo A2A receptor antagonists” (Merck Sharp & Dohme Corp., priority 2013, dated 2021).

Structures are written as SMILES.

By Ki is commonly meant the equilibrium dissociation constant of an inhibitor or competing ligand from its target. Higher therefore signals lower affinity.

human A2A receptor, sequence (P29274 whole entry): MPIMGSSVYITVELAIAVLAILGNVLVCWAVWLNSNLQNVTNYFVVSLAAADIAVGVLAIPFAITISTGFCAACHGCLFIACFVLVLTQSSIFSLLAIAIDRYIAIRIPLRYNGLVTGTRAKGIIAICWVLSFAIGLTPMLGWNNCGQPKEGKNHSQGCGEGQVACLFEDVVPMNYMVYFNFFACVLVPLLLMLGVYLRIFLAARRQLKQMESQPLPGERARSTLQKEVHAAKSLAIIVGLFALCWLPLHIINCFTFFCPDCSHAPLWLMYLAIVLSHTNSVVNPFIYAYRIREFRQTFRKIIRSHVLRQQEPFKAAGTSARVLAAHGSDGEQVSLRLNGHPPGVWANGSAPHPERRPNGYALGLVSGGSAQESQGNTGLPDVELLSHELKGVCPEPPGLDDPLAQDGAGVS

`Nc1nc2c3c(ccc2c2nc(CN4C[C@H](F)[C@@H](F)C4)nn12)OC(F)(F)O3` [Example 115, 8-{[(3S,4S)-3,4-difluoropyrrolidin-1-yl]methyl}-2,2-difluoro[1,3] dioxolo[4,5-h][1,2,4]triazolo[1,5-c]quinazolin-5-amine] had a Ki of 4.4 nM.

Molecule `Nc1nc2c3c(ccc2c2nc(CCN4CCC5(CCNCC5)C4)nn12)OC(F)(F)O3` [Example 53, 8-[2-(2,8-diazaspiro[4.5]dec-2-yl)ethyl]-2,2-difluoro[1,3] dioxolo[4,5-h][1,2,4]triazolo [1,5-c]quinazolin-5-amine] showed a Ki of 39 nM.

In turn, `Nc1nc2c3c(ccc2c2nc(CN4CCCC(F)(F)C4)nn12)OC(F)(F)O3` [Example 118, 8-[(3,3-difluoropiperidin-1-yl)methyl]-2,2-difluoro[1,3]dioxolo[4,5-h][1,2,4] triazolo[1,5-c]quinazolin-5-amine] had a Ki of 4.2 nM.

On to `Cc1cc2n(n1)CCN([C@H](C)Cc1nc3c4ccc5c(c4nc(N)n3n1)OC(F)(F)O5)C2` [Example 83, 2,2-difluoro-8-[(2R)-2-(2-methyl-6,7-dihydropyrazolo[1,5-a]pyrazin-5(4H)-yl)propyl][1,3]dioxolo[4,5-h] [1,2,4]triazolo[1,5-c]quinazolin-5-amine], for which affinity was put at a Ki of 3.8 nM.

Regarding `Cc1nc2c3ccc4c(c3nc(N)n2n1)OC(F)(F)O4` [Example 2, 2,2-difluoro-8-methyl-[1,3]dioxolo[4,5-h][1,2,4]triazolo[1,5-c]quinazolin-5-amine], the Ki worked out at 6.2 nM.

`Nc1nc2c3c(ccc2c2nc(CCN4CC5CC4C(F)(F)C5)nn12)OC(F)(F)O3` (single isomer, unassigned) [Example 66, (R or S)-8-[2-(6,6-difluoro-2-azabicyclo[2.2.1]hept-2-yl)ethyl]-2,2-difluoro[1,3]dioxolo[4,5-h][1,2,4] triazolo[1,5-c]quinazolin-5-amine] came in with a Ki of 3 nM.

For the molecule `COCCOc1ccc(N2CCN(Cc3nc4c5ccc6c(c5nc(N)n4n3)OC(F)(F)O6)C3(CC3)C2)cc1` [Example 105, 2,2-difluoro-8-({7-[4-(2-methoxyethoxy)phenyl]-4,7-diazaspiro[2.5]oct-4-yl}methyl) [1,3]dioxolo[4,5-h][1,2,4]triazolo [1,5-c]quinazolin-5-amine], the Ki was 3.7 nM.

Take `Nc1nc2c3c(ccc2c2ncnn12)OC(F)(F)O3` [Example 1, 2,2-difluoro-[1,3]dioxolo[4,5-h][1,2,4]triazolo[1,5-c]quinazolin-5-amine]: the affinity corresponds to a Ki of 12 nM.

Take `C[C@H](Cc1nc2c3ccc4c(c3nc(N)n2n1)OC(F)(F)O4)N1CCCC(C)(F)C1` (single isomer, unassigned) [Example 86, 2,2-difluoro-8-{(2R)-2-[(3R or 3S)-3-fluoro-3-methylpiperidin-1-yl]propyl}[1,3]dioxolo[4,5-h][1,2,4]triazolo[1,5-c]quinazolin-5-amine]: the Ki is 16 nM.

`CC1N(CCc2nc3c4ccc5c(c4nc(N)n3n2)OC(F)(F)O5)CCCC1(F)F` (single isomer, unassigned) [Example 69, (R or S)-8-[2-(3,3-difluoro-2-methylpiperidin-1-yl)ethyl]-2,2-difluoro[1,3]dioxolo[4,5-h][1,2,4] triazolo[1,5-c]quinazolin-5-amine] gave a Ki of 1.8 nM.

The molecule `CC1(F)CCN(CCc2nc3c4ccc5c(c4nc(N)n3n2)OC(F)(F)O5)CC1` [Example 28, 2,2-difluoro-8-[2-(4-fluoro-4-methylpiperidin-1-yl)ethyl] [1,3]dioxolo[4,5-h][1,2,4] triazolo[1,5-c]quinazolin-5-amine] came in with a Ki of 11 nM.

Take `Nc1nc2c3c(ccc2c2nc(CN4CCC(F)(F)C4)nn12)OC(F)(F)O3` [Example 116, 8-[(3,3-difluoropyrrolidin-1-yl)methyl]-2,2-difluoro[1,3]dioxolo[4,5-h][1,2,4] triazolo[1,5-c]quinazolin-5-amine]: the Ki was determined as 1.8 nM.

`Nc1nc2c3c(ccc2c2nc(CCN4CCN(C5CCCC5)C(=O)C4)nn12)OC(F)(F)O3` [Example 49, 4-[2-(5-amino-2,2-difluoro[1,3]dioxolo[4,5-h][1,2,4]triazolo [1,5-c]quinazolin-8-yl)ethyl]-1-cyclopentylpiperazin-2-one]: the Ki amounted to 1.6 nM.

Take `Nc1nc2c3c(ccc2c2nc(CC(C(F)F)N4Cc5cccnc5C4)nn12)OC(F)(F)O3` (single isomer, unassigned) [Example 98, (R or S)-8-(3,3-difluoro-2-(5H-pyrrolo[3,4-b]pyridin-6(7H)-yl)propyl)-2,2-difluoro-[1,3]dioxolo[4,5-h][1,2,4]triazolo[1,5-c]quinazolin-5-amine]: affinity was put at a Ki of 6.6 nM.

`Nc1nc2c3c(ccc2c2nc(CC4CCN(CC(F)F)C4)nn12)OC(F)(F)O3` (single isomer, unassigned) [Example 156, (R or S)-8-{[1-(2,2-difluoroethyl)pyrrolidin-3-yl]methyl}-2,2-difluoro[1,3]dioxolo[4,5-h][1,2,4]triazolo[1,5-c]quinazolin-5-amine] returned a Ki of 5.3 nM.

Consider `Cc1ncc(CN(CCc2nc3c4ccc5c(c4nc(N)n3n2)OC(F)(F)O5)CC2CC2)s1` [Example 61, 8-(2-{(cyclopropylmethyl)[(2-methyl-1,3-thiazol-5-yl)methyl]amino}ethyl)-2,2-difluoro[1,3]dioxolo[4,5-h][1,2,4]triazolo[1,5-c]quinazolin-5-amine], for which the Ki turned out to be 1.5 nM.

In the case of `CC(Cc1nc2c3ccc4c(c3nc(N)n2n1)OC(F)(F)O4)N1CCCC(F)(F)C1` (single isomer, unassigned) [Example 95, (R or S)-8-[2-(3,3-difluoropiperidin-1-yl)propyl]-2,2-difluoro[1,3] dioxolo[4,5-h][1,2,4]triazolo[1,5-c] quinazolin-5-amine], the Ki amounted to 4.3 nM.

Take `CC1(C)CCCN(CCc2nc3c4ccc5c(c4nc(N)n3n2)OC(F)(F)O5)C1` [Example 39, 8-[2-(3,3-dimethylpiperidin-1-yl)ethyl]-2,2-difluoro[1,3] dioxolo[4,5-h][1,2,4]triazolo [1,5-c]quinazolin-5-amine]: the Ki stood at 67 nM.

On to `CC(c1nc2c3ccc4c(c3nc(N)n2n1)OC(F)(F)O4)N1C[C@H](F)[C@@H](F)C1` (single isomer, unassigned) [Example 134, (R or S)-8-{1-[(3S,4S)-3,4-difluoropyrrolidin-1-yl]ethyl}-2,2-difluoro[1,3]dioxolo[4,5-h][1,2,4]triazolo[1,5-c]quinazolin-5-amine], for which the Ki was 24 nM.

`CC1(C)CN(CCc2nc3c4ccc5c(c4nc(N)n3n2)OC(F)(F)O5)C1` [Example 33, 8-[2-(3,3-dimethylazetidin-1-yl)ethyl]-2,2-difluoro[1,3]dioxolo [4,5-h][1,2,4]triazolo[1,5-c]quinazolin-5-amine] registered a Ki of 29 nM.

Turning to `CC1(F)CCCN(CCc2nc3c4ccc5c(c4nc(N)n3n2)OC(F)(F)O5)C1` (single isomer, unassigned) [Example 64, (R or S)-2,2-difluoro-8-[2-(3-fluoro-3-methylpiperidin-1-yl)ethyl][1,3] dioxolo[4,5-h][1,2,4]triazolo[1,5-c] quinazolin-5-amine], the Ki came to 7.7 nM.

The molecule `CC(Cc1nc2c3ccc4c(c3nc(N)n2n1)OC(F)(F)O4)N1Cc2cccnc2C1` (single isomer, unassigned) [Example 92, 8-[(2R or 2S)-2-(5,7-dihydro-6H-pyrrolo[3,4-b]pyridin-6-yl)propyl]-2,2-difluoro[1,3]dioxolo[4,5-h][1,2,4]triazolo[1,5-c]quinazolin-5-amine] showed a Ki of 4 nM.

With `C[C@H](Cc1nc2c3ccc4c(c3nc(N)n2n1)OC(F)(F)O4)N1CCc2ccncc21` [Example 76, 8-[(2R)-2-(2,3-dihydro-1H-pyrrolo [2,3-c]pyridin-1-yl)propyl]-2,2-difluoro[1,3]dioxolo[4,5-h][1,2,4] triazolo[1,5-c]quinazolin-5-amine], affinity was put at a Ki of 1.8 nM.

The molecule `C[C@H](Cc1nc2c3ccc4c(c3nc(N)n2n1)OC(F)(F)O4)N1CC(C)(F)C1` [Example 84, 2,2-difluoro-8-[(2R)-2-(3-fluoro-3-methylazetidin-1-yl)propyl][1,3] dioxolo[4,5-h][1,2,4]triazolo[1,5-c]quinazolin-5-amine] came in with a Ki of 4.9 nM.

Regarding `CC(Cc1nc2c3ccc4c(c3nc(N)n2n1)OC(F)(F)O4)N1CC(F)(F)C1` (single isomer, unassigned) [Example 94, (R or S)-8-[2-(3,3-difluoroazetidin-1-yl)propyl]-2,2-difluoro[1,3] dioxolo[4,5-h][1,2,4]triazolo[1,5-c] quinazolin-5-amine], the Ki was found to be 4.1 nM.

In turn, `CC1=CCN(CCc2nc3c4ccc5c(c4nc(N)n3n2)OC(F)(F)O5)CC1` [Example 41, 2,2-difluoro-8-[2-(4-methyl-3,6-dihydropyridin-1(2H)-yl)ethyl][1,3]dioxolo[4,5-h][1,2,4]triazolo[1,5-c]quinazolin-5-amine] showed a Ki of 3.8 nM.

The molecule `Nc1nc2c3c(ccc2c2nc(CCN4CC5CNC[C@H]5C4)nn12)OC(F)(F)O3` (stereo partly drawn) [Example 52, 2,2-difluoro-8-{2-[(3aS)-hexahydropyrrolo[3,4-c]pyrrol-2(1H)-yl]ethyl}[1,3]dioxolo [4,5-h][1,2,4]triazolo[1,5-c]quinazolin-5-amine] registered a Ki of 40 nM.

`Cc1csc(CN(CCc2nc3c4ccc5c(c4nc(N)n3n2)OC(F)(F)O5)CC2CC2)n1` [Example 60, 8-(2-{(cyclopropylmethyl)[(4-methyl-1,3-thiazol-2-yl)methyl]amino}ethyl)-2,2-difluoro[1,3]dioxolo[4,5-h][1,2,4]triazolo[1,5-c]quinazolin-5-amine] showed a Ki of 0.7 nM.

`CC(c1nc2c3ccc4c(c3nc(N)n2n1)OC(F)(F)O4)N1CCCC(F)(F)C1` (single isomer, unassigned) [Example 136, 8-[(1S or 1R)-1-(3,3-difluoropiperidin-1-yl)ethyl]-2,2-difluoro[1,3]dioxolo [4,5-h][1,2,4]triazolo[1,5-c] quinazolin-5-amine] had a Ki of 25 nM.
